One data set deals with Saos-2 cells. Nature of the data set: Growth inhibition assay with peptides, Saos-2. The class given is cell-based, human. To be noted: Saos-2, 5 μM. The protocol:
(§1) Cancer cell lines HeLa S3 (cervix), MCF-7 (breast) and Saos-2 (osteosarcoma) were grown at 37° C. in 5% CO2 in Ham's F 12, RPMI 1640 and McCoy's 5a medium, respectively containing 10% FBS, 2 mM L-glutamine. To assay for growth inhibition, exponentially growing cells (0.3-2.5×10^4) were seeded into 24-well plates. On the following day cells were incubated with peptides at varying concentrations without serum for 3 h followed by addition of complete medium. On day 3, 6 and 8 cells were treated again and harvested on day 3, 6, 8 and 10 to determine cell numbers using a Hemacytometer. Cell viability was assessed by trypan blue staining. Each experiment was repeated at least three times.

The next data set concerns MCF-7 and HeLa S3 cells. The experiment in a line: Annexin V apoptosis assay and DNA staining after peptide treatment. It counts as cell-based, human. Here is the method: Cells were seeded into 6-well plates, allowed to attach overnight, and then treated with different peptides at a concentration of 10 μM. Cells were trypsinized after 16 h and incubated with Annexin V according to the manufacturer's recommendations (Mo Bi Tech).

Another data set deals with MCF-7 cells. The class given is cell-based, human. Here is the method: as §1
The test system of a further data set is PLK1. Nature of the data set: In vitro kinase assay with PLK1 purified from Sf 9 cells. It counts as biochemical, human. The protocol:
PLK1 purified from Sf 9 cells was incubated with 0.5-1 μg of PLK1-specific substrates and 2 μCi of […] for 20 min at 37° C. in kinase buffer (20 mM HEPES pH 7.4, 150 mM KCl, 10 mM MgCl2, 1 mM EGTA, 0.5 mM DTT, 5 mM NaF, 0.1 mM Na3VO4 and 100 μM ATP).

Data set [1] has as its system primary epithelial cells (HMEC). Nature of the data set: Growth inhibition with peptides, primary epithelial cells. It counts as cell-based, human.
The test system of data set [2] is HeLa S3 cells. The experiment in a line: Growth inhibition assay with peptides, HeLa S3. It counts as cell-based, human. To be noted: HeLa S3, 5 μM. The protocol: as §1
For data set [3], the system named is HeLa S3 cells. Nature of the data set: Cell cycle analysis and count of mitotic cells after peptide treatment, HeLa S3. It counts as cell-based, human. The protocol: Cell cycle analysis was performed using a Cycle TEST™ PLUS DNA reagent kit (Becton Dickinson) according to the manufacturer's instructions. Briefly, cells were washed with PBS, treated with RNase A and stained with propidium iodide (PI). The analysis was performed using a Becton Dickinson FACScan flow cytometer. Using the MODFIT LT 2.0 software (Verity Software House, Topsham, Me.) for each individual sample 30,000 cells were analyzed.
(§2) For staining cells were grown in slide flasks and treated with peptides for 24 h. Then, cells were fixed in 4% paraformaldehyde for 30 min, permeabilized in 0.2% Triton X-100 for 20 min and stained with α-tubulin (Serotec/Biozol, Eching) 1:100, polyclonal rabbit PLK1 1:100, or monoclonal α-tubulin (Sigma) 1:100. Stained cells were analyzed with a confocal laser scan microscope (CLSM) or a fluorescence microscope.

Data set [4] concerns HeLa S3 cells. The experiment in a line: DNA and tubulin staining of polo-box-treated cells. It counts as cell-based, human. Here is the method:
as §2

In the case of “H-WVSKWVDYSDKYGLGYQLCDRQIKIWFQNRRMKWKK-OH [Peptide P1]”, the “Inhibitory effect on cell proliferation” value in the data set on Saos-2 cells was “intermediate effect”. Besides, the Apoptotic cells entry with MCF-7 and HeLa S3 cells (10 μM, 16 h annexin V and PI, DNA staining after 1 day) was “elevated percentage of apoptotic cells”. In the data set on MCF-7 and HeLa S3 cells (time of treatment), the Apoptotic peak is 24 h and the “Start of the inhibitory effect” value is 10 h. In the data set on MCF-7 cells, the “Concentration with general toxic effect” value is reported as “above 20 μM”. In addition, in the data set on MCF-7 cells (MCF-7), the “Concentrations that started to inhibit proliferation” value is on record as “above 1 μM” and the “Range of dose-dependent inhibition of proliferation” value lay in the range of 1 to 10 µM. Also, the “Inhibitory effect on cell proliferation” value in the data set with MCF-7 cells (MCF-7, 5 μM) was “most prominent in MCF-7 cells”. In the data set with MCF-7 cells (MCF-7, 0.01 to 0.5 μM), the Growth behavior entry is recorded as “did not affect the growth behavior”. For the same substance, in the data set with PLK1 (6.25 to 25.0 μM, wild-type compared with mutated form P2), the “Inhibitory effect on phosphorylation” value was “at least two fold more inhibition”. Moreover, in the data set with PLK1 (37° C., 20 min), the “Phosphorylation of substrates by PLK1” value is recorded as “decreased the phosphorylation of substrates clearly”. In the data set with PLK1 (below 1.56 μM), the “Inhibitory effect on phosphorylation” value is “still exhibited some effect”. The Inhibition of proliferation result in data set [1] was “to a much lower extent than MCF-7 cells”. Moreover, in the data set on HeLa S3 cells [2], the “Inhibitory effect on cell proliferation” value is recorded as “little inhibition”. Besides, in the data set with HeLa S3 cells [3] (HeLa S3, 24 h, 5 μM), the “Increase of mitotic cells compared to control cells” value is listed as 3-4 fold and the “Percentage of mitotic cells” value is given as 14.7%. In addition, the “Increase of cells in G2/M compared to control cells” value with HeLa S3 cells [3] (HeLa S3, day 6, 5 μM) is reported as 25-35%. Further, the Chromosomes entry with HeLa S3 cells [4] is “misaligned, not properly segregated and partially condensed”.
